A short description of series [1]: Free fraction by equilibrium dialysis, rat plasma. The class given is in vitro ADME. Conditions: equilibrium dialysis 37°C 5 h, mean ± S.E.M., n = 3. Here is the method:
The bidirectional permeability (Papp) of SMB-1 was examined in an MDCK cell system expressing human MDR1 [ABCB1, P-glycoprotein (P-gp)] as described previously. Permeation of the test compound from apical (A) to basal (B) direction or B to A direction was determined in triplicate over a 150-min incubation at 37°C. The efflux ratio was calculated as the ratio between Papp (B to A) and Papp (A to B). Free fraction of SMB-1 was determined using a standard equilibrium dialysis methodology with freshly isolated rat brain homogenate or plasma. Equilibrium dialysis was performed by incubating at 37°C for 5 h in triplicates.

Another series deals with T1, KV7.2-L299V (Homo sapiens, UniProt O43526, L299V).
T1 construct: expressed in transfected cells; host or cells: Xenopus laevis oocytes injected with cRNA (pGEM-HE vector)
T1 sequence (O43526 whole entry L299V): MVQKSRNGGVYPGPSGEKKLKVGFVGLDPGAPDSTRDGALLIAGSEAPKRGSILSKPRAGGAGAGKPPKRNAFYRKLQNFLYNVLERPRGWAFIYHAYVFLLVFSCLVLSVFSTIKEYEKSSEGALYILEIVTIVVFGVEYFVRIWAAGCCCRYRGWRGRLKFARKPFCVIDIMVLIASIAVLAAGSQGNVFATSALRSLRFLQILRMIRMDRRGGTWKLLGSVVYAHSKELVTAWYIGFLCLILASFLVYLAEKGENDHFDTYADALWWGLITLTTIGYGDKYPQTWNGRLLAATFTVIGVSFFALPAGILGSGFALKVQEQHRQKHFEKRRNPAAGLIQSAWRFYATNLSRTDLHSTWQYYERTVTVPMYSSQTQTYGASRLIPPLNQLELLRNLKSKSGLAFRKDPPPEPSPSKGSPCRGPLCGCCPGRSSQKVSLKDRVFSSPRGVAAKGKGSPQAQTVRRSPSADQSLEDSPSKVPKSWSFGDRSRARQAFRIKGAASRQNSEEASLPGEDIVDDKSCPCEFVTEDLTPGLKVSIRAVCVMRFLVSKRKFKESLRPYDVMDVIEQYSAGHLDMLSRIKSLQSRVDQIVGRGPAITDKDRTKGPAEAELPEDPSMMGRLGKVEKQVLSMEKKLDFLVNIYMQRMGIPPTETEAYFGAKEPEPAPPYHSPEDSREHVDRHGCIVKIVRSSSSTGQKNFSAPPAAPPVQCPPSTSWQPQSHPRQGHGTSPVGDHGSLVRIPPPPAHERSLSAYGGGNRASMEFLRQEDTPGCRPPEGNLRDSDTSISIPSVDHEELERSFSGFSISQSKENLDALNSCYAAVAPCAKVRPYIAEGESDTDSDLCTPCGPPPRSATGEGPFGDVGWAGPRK
The series can be described thus: Two-electrode voltage-clamp of mutant KV7.2-L299V in Xenopus laevis oocytes. The class given is cell-based. Conditions: 10 µM SMB-1, +50 mV, n = 4; read-out: current amplitude, % of control. Here is the method: (§1) Point mutations were introduced using mutated oligonucleotide extension (PfuTurbo Polymerase, Stratagene, La Jolla, CA, USA) from a plasmid template harboring the cDNA of interest, digested with DpnI (Fermentas, St. Leon-Roth, Germany) and transformed into E.coli XL1 Blue cells. The construct was verified by complete DNA sequencing of the cDNA insert. cRNA was prepared from linearized human wild-type (WT) and mutant KV7 channels in the pGEM-HE vector using the T7 m-Message Machine kit (Ambion, Austin, TX, USA) according to the manufacturer's instructions.
Extraction of Xenopus laevis oocytes and injection of cRNA was performed as described previously. Oocytes were kept in Modified Barth's Saline (in mM: 88 NaCl, 1 KCl, 2.4 NaHCO3, 0.41 CaCl2, 0.82 MgSO4, 0.3 Ca(NO3)2, 15 HEPES, pH 7.4 supplemented with 100 U/mL penicillin and 100 µg/mL streptomycin) at 18°C, and currents were recorded after 2-7 days. […]
KV7 currents in Xenopus laevis oocytes were recorded using two-electrode voltage-clamp at room temperature in Ringer buffer (in mM: 115 NaCl, 2.5 KCl, 1.8 CaCl2, 0.1 MgCl2, 10 HEPES, pH 7.4) as described previously. Data was acquired using pCLAMP 10.2 software (Molecular Devices, CA, USA) and analyzed using pCLAMP 10.2 and GraphPad Prism 4.0 (GraphPad Software Inc., CA, USA). […]

The target in a further series is T2, KV7.4-W242L (Homo sapiens, UniProt P56696, W242L).
T2 construct: expressed in transfected cells; host or cells: Xenopus laevis oocytes injected with cRNA (pGEM-HE vector)
T2 sequence (P56696 1-695 W242L): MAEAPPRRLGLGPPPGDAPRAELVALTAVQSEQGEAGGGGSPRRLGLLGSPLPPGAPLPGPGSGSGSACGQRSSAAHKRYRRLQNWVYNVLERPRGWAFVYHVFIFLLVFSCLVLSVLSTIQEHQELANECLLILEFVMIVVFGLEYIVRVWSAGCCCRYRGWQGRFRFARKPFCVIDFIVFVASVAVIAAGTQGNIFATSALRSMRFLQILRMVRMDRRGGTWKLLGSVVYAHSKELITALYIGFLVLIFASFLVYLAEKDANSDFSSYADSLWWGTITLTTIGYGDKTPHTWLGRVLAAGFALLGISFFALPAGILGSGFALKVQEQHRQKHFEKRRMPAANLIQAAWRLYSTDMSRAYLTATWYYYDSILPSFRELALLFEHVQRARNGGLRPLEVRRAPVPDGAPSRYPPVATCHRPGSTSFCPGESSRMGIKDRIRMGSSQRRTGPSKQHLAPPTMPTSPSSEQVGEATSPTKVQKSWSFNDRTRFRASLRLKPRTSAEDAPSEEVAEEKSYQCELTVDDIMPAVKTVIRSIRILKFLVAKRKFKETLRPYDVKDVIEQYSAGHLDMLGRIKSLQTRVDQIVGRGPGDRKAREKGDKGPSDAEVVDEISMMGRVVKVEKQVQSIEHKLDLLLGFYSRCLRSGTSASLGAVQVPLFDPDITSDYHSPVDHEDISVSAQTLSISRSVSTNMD
The series is described as follows: Two-electrode voltage-clamp of mutant KV7.4-W242L in Xenopus laevis oocytes. The class given is cell-based. Here is the method:
as §1
Extraction of Xenopus laevis oocytes and injection of cRNA was performed as described previously. Oocytes were kept in Modified Barth's Saline (in mM: 88 NaCl, 1 KCl, 2.4 NaHCO3, 0.41 CaCl2, 0.82 MgSO4, 0.3 Ca(NO3)2, 15 HEPES, pH 7.4 supplemented with 100 U/mL penicillin and 100 µg/mL streptomycin) at 18°C, and currents were recorded after 2-7 days. The care of Xenopus laevis and the oocyte extraction procedure were performed according to national guidelines and approved by the Danish Animal Experiments Inspectorate.
KV7 currents in Xenopus laevis oocytes were recorded using two-electrode voltage-clamp at room temperature in Ringer buffer (in mM: 115 NaCl, 2.5 KCl, 1.8 CaCl2, 0.1 MgCl2, 10 HEPES, pH 7.4) as described previously. Data was acquired using pCLAMP 10.2 software (Molecular Devices, CA, USA) and analyzed using pCLAMP 10.2 and GraphPad Prism 4.0 (GraphPad Software Inc., CA, USA). Currents were elicited from a holding potential of −80 mV by 5 s steps to potentials between −100 and +50 mV in 10 mV increments, followed by a 2 s step to −120 mV.
SMB-1 was dissolved in dimethyl sulfoxide (DMSO) to obtain a concentrated stock solution. […]
Current – voltage (I–V) relationship curves were generated by normalizing the steady-state peak current measured at potentials between −100 and +50 mV to the current measured at +50 mV in control recordings and plotting the values against the test potential.
The voltage-dependence of activation was determined from tail current analysis using the current measured immediately after the transient capacitive current after stepping to −120 mV from potentials between −100 mV and +50 mV. […] A V0.5 was calculated for each individual experiment and statistical significance was estimated by paired two-tailed Student's t-test.
Activation kinetics for KV7.4 and KV7.4-W242L was determined by fitting the traces recorded at potentials between −30 and +50 mV to a single exponential function: [drawing 3] […]
For investigation of deactivation kinetics the tail current traces recorded at −120 mV when stepping from the channels' respective ∼V0.5 were fitted to a single exponential function (Eq. 3).

Data on 1 molecule can be found in article PMC4067310, “From Pan-Reactive KV7 Channel Opener to Subtype Selective Opener/Inhibitor by Addition of a Methyl Group” (PLoS ONE, 2014).

`C[C@@H](c1ccc2c(c1)N(CC1CC1)CCO2)N(C)C(=O)/C=C/c1ccccc1F` [SMB-1, (E)-N-[(S)-1-(4-Cyclopropylmethyl-3,4-dihydro-2H-1,4-benzoxazin-6-yl)-ethyl]-3-(2-fluoro-phenyl)-N-methyl-acrylamide] displayed a fraction unbound at 5 h in series [1] of 0.006 ± 0.004. In addition, the remaining activity at 10 µM worked out at 69.3 ± 5.6% at KV7.2-L299V and 74.8 ± 4.2% at KV7.4-W242L (10 µM SMB-1, +50 mV, n = 5, read-out: current amplitude, % of control). Moreover, the “effect on activation kinetics” value on KV7.4-W242L (10 µM) is listed as “neither any significant effect”. Moreover, the “V0.5, voltage-dependence of activation in presence of compound” value on KV7.4-W242L (10 µM, control 5.5±4.5 mV, n = 5, p = 0.2) was found to be 4.3±4.9 mV. Moreover, the “τdeact, deactivation time constant in presence of compound” value at KV7.4-W242L (10 µM, control 12.5±2.2 ms, n = 5, p = 0.5) was found to be 12.3 ± 2.2 ms.
